According to patent publication US12371428B2 (Exelixis, Inc., priority 2019, dated 2025):
Counter-ions that a name gives are not always drawn.

Experiments:
[1] = molecular target: KDR (phospho-KDR, VEGF165-stimulated HUVEC cells) (Homo sapiens (Human), UniProt P35968); assay: KDR autophosphorylation ELISA in HUVEC cells (Example G); assay type: cell-based; conditions: cellular activity; KDR autophosphorylation ELISA in HUVEC cells
How it was run: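 Cells seeded, grown 24 h at 37 °C, starved 24 h serum-free; cpd 8-pt curve, 0.3% DMSO, 1 h; VEGF165 100 ng/mL, 5 min; cold PBS wash, lysis with orthovanadate and protease/phosphatase inhibitors; pKDR ELISA; IC50 by 4-parameter logistic regression.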

[2] = molecular target: Met (phospho-Met, HGF-stimulated PC-3 prostate cancer cells) (Homo sapiens (Human), UniProt P08581); assay: Met autophosphorylation ELISA in PC-3 cells (Example F); assay type: cell-based; conditions: cellular activity; Met autophosphorylation ELISA in PC-3 cells; read-out: c-Met IC50
Chain of Met (phospho-Met, HGF-stimulated PC-3 prostate cancer cells) (P08581 25-1390): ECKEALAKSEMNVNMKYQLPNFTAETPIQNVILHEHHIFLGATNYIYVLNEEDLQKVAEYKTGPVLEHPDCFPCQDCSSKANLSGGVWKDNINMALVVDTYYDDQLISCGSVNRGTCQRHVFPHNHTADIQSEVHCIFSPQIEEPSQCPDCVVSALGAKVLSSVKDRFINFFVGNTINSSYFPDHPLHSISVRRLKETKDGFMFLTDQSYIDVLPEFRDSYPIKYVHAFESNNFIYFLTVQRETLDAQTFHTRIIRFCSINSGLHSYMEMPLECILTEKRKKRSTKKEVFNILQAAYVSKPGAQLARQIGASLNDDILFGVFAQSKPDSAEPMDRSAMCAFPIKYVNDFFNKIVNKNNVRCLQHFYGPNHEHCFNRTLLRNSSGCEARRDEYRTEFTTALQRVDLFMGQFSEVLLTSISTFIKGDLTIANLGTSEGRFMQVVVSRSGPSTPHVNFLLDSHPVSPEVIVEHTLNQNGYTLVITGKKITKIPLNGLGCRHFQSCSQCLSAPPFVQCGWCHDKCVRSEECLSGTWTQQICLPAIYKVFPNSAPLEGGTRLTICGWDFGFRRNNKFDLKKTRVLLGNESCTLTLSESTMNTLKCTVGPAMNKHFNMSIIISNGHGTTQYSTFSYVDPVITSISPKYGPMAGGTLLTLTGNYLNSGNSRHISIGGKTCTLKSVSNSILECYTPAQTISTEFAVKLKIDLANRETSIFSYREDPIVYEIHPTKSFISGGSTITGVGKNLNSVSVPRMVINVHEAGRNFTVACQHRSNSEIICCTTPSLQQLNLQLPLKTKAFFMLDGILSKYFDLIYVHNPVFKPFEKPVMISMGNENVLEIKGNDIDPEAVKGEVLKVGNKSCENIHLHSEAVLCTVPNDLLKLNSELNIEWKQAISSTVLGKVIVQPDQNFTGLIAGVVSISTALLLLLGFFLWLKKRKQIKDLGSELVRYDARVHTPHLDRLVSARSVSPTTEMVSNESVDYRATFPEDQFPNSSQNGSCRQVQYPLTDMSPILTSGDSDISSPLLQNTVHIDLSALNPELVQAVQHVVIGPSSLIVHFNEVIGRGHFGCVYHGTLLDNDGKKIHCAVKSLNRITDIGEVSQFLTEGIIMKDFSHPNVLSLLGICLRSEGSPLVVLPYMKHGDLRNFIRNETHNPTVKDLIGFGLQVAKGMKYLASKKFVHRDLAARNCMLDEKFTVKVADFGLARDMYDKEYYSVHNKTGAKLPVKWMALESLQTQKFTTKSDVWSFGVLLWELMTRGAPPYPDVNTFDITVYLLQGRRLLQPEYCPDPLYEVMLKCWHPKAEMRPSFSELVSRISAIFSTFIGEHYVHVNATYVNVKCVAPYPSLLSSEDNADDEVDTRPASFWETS
How it was run: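 Compounds were tested on HGF-stimulated PC-3 cells. After 24 h culture and 3 h serum starvation, cells got compound for 1 h and 100 ng/mL HGF for 10 min, and Met tyrosine phosphorylation was measured by ELISA.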

Chain of KDR (phospho-KDR, VEGF165-stimulated HUVEC cells) (P35968 20-1356): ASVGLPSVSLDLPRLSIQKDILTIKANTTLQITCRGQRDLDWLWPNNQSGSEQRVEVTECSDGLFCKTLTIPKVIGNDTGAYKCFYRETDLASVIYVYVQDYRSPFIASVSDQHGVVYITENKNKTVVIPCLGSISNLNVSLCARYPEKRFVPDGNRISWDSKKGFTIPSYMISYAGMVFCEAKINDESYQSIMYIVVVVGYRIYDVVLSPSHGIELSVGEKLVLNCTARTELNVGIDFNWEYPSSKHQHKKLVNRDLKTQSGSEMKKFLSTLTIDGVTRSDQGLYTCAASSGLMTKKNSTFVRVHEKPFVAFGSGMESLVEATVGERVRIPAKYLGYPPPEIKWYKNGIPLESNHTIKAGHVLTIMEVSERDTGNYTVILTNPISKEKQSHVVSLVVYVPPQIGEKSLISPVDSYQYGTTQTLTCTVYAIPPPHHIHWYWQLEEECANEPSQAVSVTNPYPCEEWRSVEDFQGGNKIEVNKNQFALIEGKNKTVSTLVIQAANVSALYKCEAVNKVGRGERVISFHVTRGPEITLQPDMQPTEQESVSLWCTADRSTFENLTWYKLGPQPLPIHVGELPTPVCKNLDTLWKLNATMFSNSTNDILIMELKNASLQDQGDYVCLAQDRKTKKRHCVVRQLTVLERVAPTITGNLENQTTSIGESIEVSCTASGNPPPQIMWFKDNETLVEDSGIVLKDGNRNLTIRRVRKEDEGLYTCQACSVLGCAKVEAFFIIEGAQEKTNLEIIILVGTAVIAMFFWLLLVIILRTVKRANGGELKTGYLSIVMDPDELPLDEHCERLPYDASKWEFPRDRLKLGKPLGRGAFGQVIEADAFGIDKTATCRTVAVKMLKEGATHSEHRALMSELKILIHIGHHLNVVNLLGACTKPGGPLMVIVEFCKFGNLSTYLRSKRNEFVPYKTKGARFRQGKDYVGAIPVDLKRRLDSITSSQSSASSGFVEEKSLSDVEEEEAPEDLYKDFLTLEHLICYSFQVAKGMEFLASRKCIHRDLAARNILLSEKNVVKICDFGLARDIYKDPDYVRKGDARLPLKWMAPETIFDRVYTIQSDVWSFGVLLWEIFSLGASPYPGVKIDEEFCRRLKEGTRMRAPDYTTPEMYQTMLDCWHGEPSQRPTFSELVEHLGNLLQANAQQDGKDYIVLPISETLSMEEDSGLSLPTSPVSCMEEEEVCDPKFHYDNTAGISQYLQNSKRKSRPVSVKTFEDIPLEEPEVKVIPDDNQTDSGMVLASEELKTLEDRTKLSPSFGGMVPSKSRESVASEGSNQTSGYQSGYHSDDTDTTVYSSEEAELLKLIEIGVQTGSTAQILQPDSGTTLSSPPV

Row | Compound | IC50 [1] [nM] | IC50 [2] [nM]
1 | COc1cnc2c(Oc3ccc(NC(=O)c4cn(C)c(CO)c(-c5ccc(F)cc5)c4=O)cc3F)ccnc2c1 [Compound 222, N-[3-Fluoro-4-[(7-methoxy-1,5-naphthyridin-4-yl)oxy]phenyl]-5-(4-fluorophenyl)-6-(hydroxymethyl)-1-methyl-4-oxopyridine-3-carboxamide] | > 300 | < 100
2 | COc1cc2nccc(Oc3ccc(NC(=O)c4cn(C)c(C)c(-c5ccc(F)cc5C)c4=O)cc3)c2nc1OC [Compound 196, N-[4-[(6,7-Dimethoxy-1,5-naphthyridin-4-yl)oxy]phenyl]-5-(4-fluoro-2-methylphenyl)-1,6-dimethyl-4-oxopyridine-3-carboxamide] | < 100 | < 100
3 | COc1cnc2c(Oc3ccc(NC(=O)c4ccc(C)n(-c5ccc(F)cc5C)c4=O)cc3F)ccnc2c1 [Compound 220, N-[3-Fluoro-4-[(7-methoxy-1,5-naphthyridin-4-yl)oxy]phenyl]-1-(4-fluoro-2-methylphenyl)-6-methyl-2-oxopyridine-3-carboxamide] | < 100 | < 100
4 | COCc1nc(C)c(-c2ccc(F)cc2)c(O)c1C(=O)Nc1ccc(Oc2ccnc3ccc(OC)nc23)c(F)c1 [Compound 189, N-[3-Fluoro-4-[(6-methoxy-1,5-naphthyridin-4-yl)oxy]phenyl]-5-(4-fluorophenyl)-4-hydroxy-2-(methoxymethyl)-6-methylpyridine-3-carboxamide] | < 100 | < 100
5 | COCCOc1nc2c(Oc3ccc(NC(=O)c4cn(C)c(C)c(-c5ccc(F)cc5C)c4=O)cc3F)ccnc2cc1OC [Compound 200, N-[3-Fluoro-4-[[7-methoxy-6-(2-methoxyethoxy)-1,5-naphthyridin-4-yl]oxy]phenyl]-5-(4-fluoro-2-methylphenyl)-1,6-dimethyl-4-oxopyridine-3-carboxamide] | < 100 | < 100
6 | COc1ccc2nccc(Oc3ccc(NC(=O)c4c(C)ncc(-c5ccc(F)cc5)c4O)cc3F)c2n1 [Compound 242, N-[3-Fluoro-4-[(6-methoxy-1,5-naphthyridin-4-yl)oxy]phenyl]-5-(4-fluorophenyl)-4-hydroxy-2-methylpyridine-3-carboxamide] | < 100 | < 100
7 | COCc1nc(C)c(-c2ccc(F)cc2)c(O)c1C(=O)Nc1ccc(Oc2ccnc3cc(OC)c(OC)nc23)c(F)c1 [Compound 184, N-[4-[(6,7-Dimethoxy-1,5-naphthyridin-4-yl)oxy]-3-fluorophenyl]-5-(4-fluorophenyl)-4-hydroxy-2-(methoxymethyl)-6-methylpyridine-3-carboxamide] | < 100 | < 100
8 | COCc1nc(C)c(-c2ccc(F)cc2C)c(O)c1C(=O)Nc1ccc(Oc2ccnc3cc(OC)cnc23)cc1 [Compound 194, 5-(4-Fluoro-2-methylphenyl)-4-hydroxy-2-(methoxymethyl)-N-[4-[(7-methoxy-1,5-naphthyridin-4-yl)oxy]phenyl]-6-methylpyridine-3-carboxamide] | < 100 | < 100
9 | CCc1nc(C)c(-c2ccc(F)cc2C)c(O)c1C(=O)Nc1ccc(Oc2ccnc3cc(OC)cnc23)cc1 [Compound 205, 2-Ethyl-5-(4-fluoro-2-methylphenyl)-4-hydroxy-N-[4-[(7-methoxy-1,5-naphthyridin-4-yl)oxy]phenyl]-6-methylpyridine-3-carboxamide] | < 100 | < 100
10 | COc1cc2nccc(Oc3ccc(NC(=O)c4cn(C)c(C)c(-c5ccccc5)c4=O)cc3F)c2nc1OC [Compound 36, N-[4-[(6,7-Dimethoxy-1,5-naphthyridin-4-yl)oxy]-3-fluorophenyl]-1,6-dimethyl-4-oxo-5-phenylpyridine-3-carboxamide hydrochloride] | 100 to 300 | < 100
11 | COc1cnc2c(Oc3ccc(NC(=O)c4c(C)n(C)cc(-c5ccc(F)cc5)c4=O)cc3F)ccnc2c1 [Compound 239, N-[3-Fluoro-4-[(7-methoxy-1,5-naphthyridin-4-yl)oxy]phenyl]-5-(4-fluorophenyl)-1,2-dimethyl-4-oxopyridine-3-carboxamide] | > 300 | 100 to 300
12 | COc1cnc2c(Oc3ccc(NC(=O)c4cn(C)c(CO)c(-c5ccc(F)cc5)c4=O)cc3)ccnc2c1 [Compound 223, 5-(4-Fluorophenyl)-6-(hydroxymethyl)-N-[4-[(7-methoxy-1,5-naphthyridin-4-yl)oxy]phenyl]-1-methyl-4-oxopyridine-3-carboxamide] | > 300 | < 100
13 | CCc1nc(C)c(-c2ccc(F)cc2C)c(O)c1C(=O)Nc1ccc(Oc2ccnc3cc(OC)c(OC)nc23)c(F)c1 [Compound 202, N-[4-[(6,7-Dimethoxy-1,5-naphthyridin-4-yl)oxy]-3-fluorophenyl]-2-ethyl-5-(4-fluoro-2-methylphenyl)-4-hydroxy-6-methylpyridine-3-carboxamide] | < 100 | < 100
14 | CCc1nc(C)c(-c2ccc(F)cc2)c(O)c1C(=O)Nc1ccc(Oc2ccnc3cc(OC)c(OC)nc23)cc1 [Compound 197, N-[4-[(6,7-Dimethoxy-1,5-naphthyridin-4-yl)oxy]phenyl]-2-ethyl-5-(4-fluorophenyl)-4-hydroxy-6-methylpyridine-3-carboxamide] | < 100 | < 100
15 | COc1ccc2nccc(Oc3ccc(NC(=O)c4cnc(C)n(-c5ccc(F)cc5)c4=O)cc3F)c2n1 [Compound 232, N-[3-Fluoro-4-[(6-methoxy-1,5-naphthyridin-4-yl)oxy]phenyl]-1-(4-fluorophenyl)-2-methyl-6-oxopyrimidine-5-carboxamide] | 100 to 300 | < 100

Other lines, results leading:

Row | IC50 [1] [nM] | IC50 [2] [nM] | Compound
16 | < 100 | < 100 | COc1cc2nccc(Oc3ccc(NC(=O)c4ccc(C)n(-c5ccc(F)cc5C)c4=O)cc3)c2nc1OC [Compound 225, N-[4-[(6,7-Dimethoxy-1,5-naphthyridin-4-yl)oxy]phenyl]-1-(4-fluoro-2-methylphenyl)-6-methyl-2-oxopyridine-3-carboxamide]
17 | < 100 | < 100 | COCCOc1nc2c(Oc3ccc(NC(=O)c4c(COC)nc(C)c(-c5ccc(F)cc5C)c4O)cc3F)ccnc2cc1OC [Compound 201, N-[3-Fluoro-4-[[7-methoxy-6-(2-methoxyethoxy)-1,5-naphthyridin-4-yl]oxy]phenyl]-5-(4-fluoro-2-methylphenyl)-4-hydroxy-2-(methoxymethyl)-6-methylpyridine-3-carboxamide]
18 | 100 to 300 | < 100 | COc1cc2nccc(Oc3ccc(NC(=O)c4cn(C)c(C)c(-c5cccc(F)c5)c4=O)cc3F)c2nc1OC [Compound 37, N-[4-[(6,7-Dimethoxy-1,5-naphthyridin-4-yl)oxy]-3-fluorophenyl]-5-(3-fluorophenyl)-1,6-dimethyl-4-oxopyridine-3-carboxamide hydrochloride]
19 | < 100 | < 100 | COc1cnc2c(Oc3ccc(NC(=O)c4n[nH]c(C)c(-c5ccc(F)cc5)c4=O)cc3F)ccnc2c1 [Compound 246, N-[3-Fluoro-4-[(7-methoxy-1,5-naphthyridin-4-yl)oxy]phenyl]-5-(4-fluorophenyl)-6-methyl-4-oxo-1H-pyridazine-3-carboxamide]
20 | < 100 | < 100 | COc1cc2nccc(Oc3ccc(NC(=O)c4ncc(C)n(-c5ccc(F)cc5)c4=O)cc3)c2nc1OC [Compound 262, N-[4-[(6,7-Dimethoxy-1,5-naphthyridin-4-yl)oxy]phenyl]-4-(4-fluorophenyl)-5-methyl-3-oxopyrazine-2-carboxamide]
21 | < 100 | < 100 | COCc1nc(C)c(-c2ccc(F)cc2C)c(O)c1C(=O)Nc1ccc(Oc2ccnc3cc(OC)c(OC)nc23)cc1 [Compound 192, N-[4-[(6,7-Dimethoxy-1,5-naphthyridin-4-yl)oxy]phenyl]-5-(4-fluoro-2-methylphenyl)-4-hydroxy-2-(methoxymethyl)-6-methylpyridine-3-carboxamide]
22 | < 100 | 100 to 300 | COc1ccc2nccc(Oc3ccc(NC(=O)c4c(C)nc(C)n(-c5ccc(F)cc5)c4=O)cc3F)c2n1 [Compound 233, N-[3-Fluoro-4-[(6-methoxy-1,5-naphthyridin-4-yl)oxy]phenyl]-1-(4-fluorophenyl)-2,4-dimethyl-6-oxopyrimidine-5-carboxamide]
23 | 100 to 300 | < 100 | COc1cc2nccc(Oc3ccc(NC(=O)c4cn(CC(F)(F)F)c(C)c(-c5ccc(F)cc5)c4=O)cc3F)c2cc1OC [Compound 259, N-[4-(6,7-Dimethoxyquinolin-4-yl)oxy-3-fluorophenyl]-5-(4-fluorophenyl)-6-methyl-4-oxo-1-(2,2,2-trifluoroethyl)pyridine-3-carboxamide]
24 | 100 to 300 | 100 to 300 | COc1ccc2nccc(Oc3ccc(NC(=O)c4n[nH]c(C)c(-c5ccc(F)cc5C)c4=O)cc3F)c2n1 [Compound 230, N-[3-Fluoro-4-[(6-methoxy-1,5-naphthyridin-4-yl)oxy]phenyl]-5-(4-fluoro-2-methylphenyl)-6-methyl-4-oxo-1H-pyridazine-3-carboxamide]
25 | > 300 | < 100 | COc1cnc2c(Oc3ccc(NC(=O)c4cn(CC(F)(F)F)c(C)c(-c5ccc(F)cc5)c4=O)cc3F)ccnc2c1 [Compound 261, N-[3-Fluoro-4-[(7-methoxy-1,5-naphthyridin-4-yl)oxy]phenyl]-5-(4-fluorophenyl)-6-methyl-4-oxo-1-(2,2,2-trifluoroethyl)pyridine-3-carboxamide]
